The text below walks through data of US4895589A, “Heterocyclic compounds” (Imperial Chemical Industries PLC, priority 1985, dated 1990).

The structures appear in SMILES notation.

The subject of one assay is Wheat. The settings on record: WW, 4000 ppm, 2-3 weeks.
For another assay, the system named is Rice. Kind of assay: Intermediate Retardant Test, rice. In kind it is in vivo, Rice (Ishikari). Particulars: Oryza sativa, 672 h, ~28 days, Table VII, read-out: Percentage Reduction in Height of Rice (Compared to formulation blank). Summed up: (§1)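 Overall spray at 1000 ppm and 4000 ppm (1 and 4 kg ha^-1, 1000 l/ha), giving foliar plus root exposure; rice in flooded paddy pots, barley and apples in 4" pots. Height measured ~28 days after treatment (ligule for cereals, apex for apples), reported as % reduction versus formulation blank.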

Another assay concerns Cynosurus cristatus. Particulars: CC, 4000 ppm, 2-3 weeks.
For the next assay, the system named is Sugar beet. Particulars: SB, 4000 ppm, 2-3 weeks.
A further assay deals with Apples. Kind of assay: Intermediate Retardant Test, apples. In kind it is in vivo, Apples (Red Delicious). The settings on record: 672 h, ~28 days, Table IX, read-out: Percentage Reduction in Height of Apples (Compared to formulation blank). Summed up:
as §1

Another assay relates to Spring Barley. Kind of assay: Intermediate Retardant Test, spring barley. In kind it is in vivo, Spring Barley (Atem/kym). The settings on record: Hordeum vulgare, 672 h, ~28 days, Table VIII, read-out: Percentage Reduction in Height of Spring Barley (Compared to formulation blank). In outline: as §1
A further assay deals with Soya. The settings on record: SY, 4000 ppm, 2-3 weeks.
The next assay relates to Tomato. The settings on record: TO, 4000 ppm, 2-3 weeks.
For another assay, the system named is Maize. The settings on record: MZ, 4000 ppm, 2-3 weeks.
Another assay relates to Lettuce. Particulars: LT, 4000 ppm, 2-3 weeks.
A further assay deals with Barley. The settings on record: BR, 4000 ppm, 2-3 weeks.
The subject of another assay is Vines. The settings on record: VN, 4000 ppm, 2-3 weeks.
Another assay relates to Radish. The settings on record: RA, 4000 ppm, 2-3 weeks.
The next assay deals with Dacrylis glomerata. Particulars: DA, 4000 ppm, 2-3 weeks.
For another assay, the system named is Agrostis tenius. Particulars: AT, 4000 ppm, 2-3 weeks.
The subject of assay [1] is plant species of Whole Plant Screen (1) or (2). Kind of assay: Across screen comparison: total retardation relative to paclobutrazol (Whole Plant Screens (1) and (2)). Particulars: compounds of Table I, Table X. In kind it is in vivo. In outline:
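Compounds, each tested in Whole Plant Screen (1) or (2), are compared by summing retardation scores over all species tested. Each total is expressed as a percentage of the total retardation from paclobutrazol, the standard run in every test.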

Description for Cynosurus cristatus: (§2) The compounds were tested for plant growth regulator activity against up to tweleve plant species for various growth effects relevant to plant growth regulation.
(§3) Each chemical was applied at 4000 ppm (4 kg/ha in a 1000 l/ha field volume) using a tracksprayer and a SS8004E (Teejet) nozzle.
(§4) After spray, the plants were grown in a glasshouse with 25° C. day/22° C. night temperatures and supplementary lighting was supplied when necessary (from mercury vapour lamps), to provide a 16 hour photoperiod. The exception to this were the temperate cereals, wheat and barley, which were grown in 16° C. day 13° C. night temperatures
(§5) After 2-3 weeks in the glasshouse, depending on the time of year, the plants were visually assessed for morphological characteristics. Formulations blanks were used as controls to assess the Plants.
Description for Dacrylis glomerata: as §2, §3, §4, §5
Description for Lettuce: as §2, §3, §4, §5
Description for Maize: as §2, §3, §4, §5
Description for Radish: as §2, §3, §4, §5
Description for Soya: as §2, §3, §4, §5
Description for Sugar beet: as §2, §3, §4, §5
Description for Tomato: as §2, §3, §4, §5
Description for Wheat: as §2, §3, §4, §5

As for `CCCCC#CC(Cn1cncn1)(OC)C(C)(C)C` (centres unmarked) [Compound 2], the “Retardation score (1-3) with greening (G), apical damage (A), tillering/side shooting (T)” value (from here on “Retardation score … tillering/side shooting (T)”) is 2G with Wheat; 1G in the assay with Cynosurus cristatus; 1G in the assay with Sugar beet; 3GT with Soya; 1G with Tomato; 2GA in the assay with Maize. In addition, the “Retardation score … tillering/side shooting (T)” value in the assay on Lettuce is given as 1 (10-30% retardation). Further, in the assay on Rice, the Percent reduction in rice plant height vs formulation blank at 1000 ppm is 17.4%. For the same compound, the Percent reduction in rice plant height vs formulation blank at 4000 ppm in the assay with Rice was found to be 34.6%. In addition, the percent reduction in plant height vs formulation blank at 4000 ppm in the assay with Apples came out at 12.3%. For the same compound, the height reduction vs blank at 1000 ppm in the assay with Spring Barley is 0.2%. The height reduction vs blank at 4000 ppm in the assay with Spring Barley came to 25.6%.
In the case of `CCCCCC#CC(O)(Cn1cncn1)C(C)(C)C` (centres unmarked) [Compound 3, 2,2-dimethyl-3-hydroxy-3-(hept-1-yne-1-yl)-4-(1,2,4-triazol-1-yl)-butane], the “Retardation score … tillering/side shooting (T)” value in the assay with Wheat is 2GT; in the assay with Barley, 1T; in the assay on Cynosurus cristatus it was 2G; with Vines it was 2GAT; in the assay with Sugar beet, 1G; in the assay on Radish, 3 (61-100% retardation). Also, the “Retardation score … tillering/side shooting (T)” value is given as 2G with Dacrylis glomerata; 3GA in the assay on Soya; 2G with Agrostis tenius; 2G in the assay with Tomato; 1G in the assay with Maize. The Percent reduction in rice plant height vs formulation blank at 1000 ppm with Rice worked out at 21.2%. The Percent reduction in rice plant height vs formulation blank at 4000 ppm in the assay on Rice was found to be 40.8%. Also, the percent reduction in plant height vs formulation blank at 1000 ppm in the assay on Apples turned out to be 9.5%. The percent reduction in plant height vs formulation blank at 4000 ppm in the assay with Apples worked out at 25.9%. Besides, the height reduction vs blank at 1000 ppm in the assay on Spring Barley is 18.5%. Besides, the height reduction vs blank at 4000 ppm in the assay with Spring Barley turned out to be 34.7%. Besides, the “Total Retardation expressed as a percentage of the total retardation caused by paclobutrazol” value in assay [1] is 65.6 % of paclobutrazol.
On to `CCC(C)C#CC(O)(Cn1cncn1)C(C)(C)C` (centres unmarked) [Compound 6, 2,2-dimethyl-3-hydroxy-3-(3-methyl-pent-1-yne-1-yl)-4-(1,2,4-triazol-1-yl)-butane], for which the “Retardation score … tillering/side shooting (T)” value is 3GT with Wheat; 2G in the assay with Barley; 1 (10-30% retardation) in the assay on Cynosurus cristatus; 2GT in the assay with Vines; 1G in the assay on Sugar beet; 1 (10-30% retardation) in the assay on Dacrylis glomerata. Also, the “Retardation score … tillering/side shooting (T)” value in the assay with Soya is given as 2GA; with Agrostis tenius, 1 (10-30% retardation); in the assay on Tomato, 1G; in the assay on Lettuce, 1G. In addition, the Percent reduction in rice plant height vs formulation blank at 1000 ppm in the assay with Rice is 11.2%. In the assay on Rice, the Percent reduction in rice plant height vs formulation blank at 4000 ppm amounted to 22.7%. Also, the percent reduction in plant height vs formulation blank at 1000 ppm in the assay on Apples turned out to be 1.2%. Moreover, the percent reduction in plant height vs formulation blank at 4000 ppm in the assay with Apples is 38.6%. In the assay on Spring Barley, the height reduction vs blank at 1000 ppm was 0.8%. Also, in the assay on Spring Barley, the height reduction vs blank at 4000 ppm was found to be 23.5%. Moreover, in [1], the “Total Retardation expressed as a percentage of the total retardation caused by paclobutrazol” value is 52.0 % of paclobutrazol.
Consider `CC(C)CCC#CC(O)(Cn1cncn1)C(C)(C)C` (centres unmarked) [Compound 8, 2,2-dimethyl-3-hydroxy-3-(5-methyl-hex-1-yne-1-yl)-4-(1,2,4-triazol-1-yl)-butane], for which the “Retardation score … tillering/side shooting (T)” value in the assay on Wheat is 3GT; in the assay on Barley it was 1T; with Cynosurus cristatus it was 2G; with Vines it was 1 (10-30% retardation); in the assay with Radish it was 3G; in the assay on Dacrylis glomerata, 1G. Besides, the “Retardation score … tillering/side shooting (T)” value in the assay with Soya came to 3G; with Agrostis tenius, 1G; in the assay on Tomato, 2G; in the assay with Maize, 1G; in the assay with Lettuce it was 1G. Moreover, the Percent reduction in rice plant height vs formulation blank at 1000 ppm in the assay on Rice is 26.6%. Also, in the assay with Rice, the Percent reduction in rice plant height vs formulation blank at 4000 ppm was 47.7%. For the same compound, the percent reduction in plant height vs formulation blank at 1000 ppm with Apples stood at 7.5%. For the same compound, in the assay with Apples, the percent reduction in plant height vs formulation blank at 4000 ppm is 26%. For the same compound, in the assay with Spring Barley, the height reduction vs blank at 1000 ppm turned out to be 39.6%. Besides, the height reduction vs blank at 4000 ppm with Spring Barley came out at 65.8%. In addition, the “Total Retardation expressed as a percentage of the total retardation caused by paclobutrazol” value in [1] was 60.0 % of paclobutrazol.
